The text below walks through data of ChEMBL document CHEMBL4680197, “Further exploration of DVD-445 as a lead thioredoxin reductase (TrxR) inhibitor for cancer therapy: Optimization of potency and evaluation of anticancer potential” (Eur J Med Chem, 2020).

SMILES strings stand for the structures. Activity calls are given as the source filed them. No cut-off for these calls is given here.

Data set [1] is described as follows: Selectivity index, ratio of IC50 for human MRC5 cells to IC50 for human U87 cells. The note with it: MRC5 cells versus U87 cells, read-out: Ratio IC50. The data set is classed as toxicity.
Data set [2] concerns SH-SY5Y. Put plainly: Inhibition of TrxR in human SH-SY5Y cell lysates at 5 uM using DTNB as substrate preincubated for 15 mins followed by substrate addition and measured for 20 mins by colorimetry relative to control. The data set is classed as subcellular. The note with it: time 35.0 min.
The target of data set [3] is T1, Thioredoxin reductase 1, cytoplasmic (Rattus norvegicus, UniProt O89049).
T1 sequence (O89049 whole entry): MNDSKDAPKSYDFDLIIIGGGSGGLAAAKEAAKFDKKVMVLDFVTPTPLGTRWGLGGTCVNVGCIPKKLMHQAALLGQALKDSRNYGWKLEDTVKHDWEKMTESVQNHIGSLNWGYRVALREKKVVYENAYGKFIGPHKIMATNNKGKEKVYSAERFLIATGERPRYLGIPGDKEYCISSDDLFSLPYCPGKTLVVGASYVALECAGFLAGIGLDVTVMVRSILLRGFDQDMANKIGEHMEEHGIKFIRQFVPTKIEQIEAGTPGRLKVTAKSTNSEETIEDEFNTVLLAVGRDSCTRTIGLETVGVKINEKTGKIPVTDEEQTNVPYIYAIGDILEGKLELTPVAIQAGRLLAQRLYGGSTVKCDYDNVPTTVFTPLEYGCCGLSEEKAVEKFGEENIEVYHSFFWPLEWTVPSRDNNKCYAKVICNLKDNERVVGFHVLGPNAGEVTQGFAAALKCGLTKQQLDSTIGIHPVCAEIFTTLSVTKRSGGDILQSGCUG
Put plainly: Inhibition of recombinant rat TrxR1 using DTNB as substrate preincubated for 15 mins followed by substrate addition and measured for 20 mins by colorimetry.

Data set [4] relates to U-87 MG. Put plainly: Cytotoxicity against human U87 cells assessed as reduction in cell viability incubated for 72 hrs by MTT assay. The data set is classed as functional, cell-based, U-87MG ATCC.
The nature of data set [5]: Cytotoxicity against human U87-TxR cells assessed as reduction in cell viability incubated for 72 hrs by MTT assay. The data set is classed as functional, cell-based.
The test system of data set [6] is MRC5. Description: Cytotoxicity against human MRC5 cells assessed as reduction in cell viability incubated for 72 hrs by MTT assay. The data set is classed as cell-based. The note with it: MRC5, 72 h.
Data set [7] can be described thus: Selectivity index, ratio of IC50 for human MRC5 cells to IC50 for human U87-TxR cells. The note with it: MRC5 cells versus U87-TxR cells, read-out: Ratio IC50. The data set is classed as toxicity.
Data set [8] deals with T2, Thioredoxin reductase 1, cytoplasmic (Homo sapiens) (UniProt Q16881).
T2 sequence (whole entry): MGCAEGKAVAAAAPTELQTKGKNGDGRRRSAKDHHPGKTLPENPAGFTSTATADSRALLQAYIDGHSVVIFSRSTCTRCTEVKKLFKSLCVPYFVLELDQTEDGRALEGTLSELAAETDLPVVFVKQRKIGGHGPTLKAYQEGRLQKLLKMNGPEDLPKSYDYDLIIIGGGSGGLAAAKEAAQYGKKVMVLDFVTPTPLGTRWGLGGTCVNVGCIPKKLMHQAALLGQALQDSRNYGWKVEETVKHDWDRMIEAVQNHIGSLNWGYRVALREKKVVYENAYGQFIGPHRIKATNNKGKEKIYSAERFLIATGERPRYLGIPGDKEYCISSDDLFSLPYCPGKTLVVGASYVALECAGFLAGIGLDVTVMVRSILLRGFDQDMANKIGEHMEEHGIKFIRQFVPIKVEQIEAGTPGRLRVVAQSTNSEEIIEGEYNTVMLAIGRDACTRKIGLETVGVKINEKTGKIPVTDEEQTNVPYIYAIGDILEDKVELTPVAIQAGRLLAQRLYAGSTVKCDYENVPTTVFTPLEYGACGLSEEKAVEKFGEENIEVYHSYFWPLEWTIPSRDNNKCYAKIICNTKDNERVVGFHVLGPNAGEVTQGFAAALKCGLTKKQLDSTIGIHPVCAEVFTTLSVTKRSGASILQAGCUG
Description: Inhibition of TrxR1 in human U87 cells assessed as increase in RONS level at 10 uM measured after 24 hrs by dihydrorhodamine 123 dye based flow cytometry. The data set is classed as cell-based.

For data set [9], the target named is T2, Thioredoxin reductase 1, cytoplasmic (Homo sapiens). Description: Inhibition of TrxR1 in human U87-TxR cells assessed as increase in RONS level at 10 uM measured after 24 hrs by dihydrorhodamine 123 dye based flow cytometry. The data set is classed as cell-based.
The target in data set [10] is T3, ATP-dependent translocase ABCB1 (Homo sapiens, UniProt P08183). Put plainly: Inhibition of P-gp in human U87-TxR cells assessed as increase in Rho123 accumulation at 5 uM measured after 30 mins by flow cytometry. The data set is classed as cell-based. The note with it: 0.5 h.
T3 sequence (P08183 whole entry): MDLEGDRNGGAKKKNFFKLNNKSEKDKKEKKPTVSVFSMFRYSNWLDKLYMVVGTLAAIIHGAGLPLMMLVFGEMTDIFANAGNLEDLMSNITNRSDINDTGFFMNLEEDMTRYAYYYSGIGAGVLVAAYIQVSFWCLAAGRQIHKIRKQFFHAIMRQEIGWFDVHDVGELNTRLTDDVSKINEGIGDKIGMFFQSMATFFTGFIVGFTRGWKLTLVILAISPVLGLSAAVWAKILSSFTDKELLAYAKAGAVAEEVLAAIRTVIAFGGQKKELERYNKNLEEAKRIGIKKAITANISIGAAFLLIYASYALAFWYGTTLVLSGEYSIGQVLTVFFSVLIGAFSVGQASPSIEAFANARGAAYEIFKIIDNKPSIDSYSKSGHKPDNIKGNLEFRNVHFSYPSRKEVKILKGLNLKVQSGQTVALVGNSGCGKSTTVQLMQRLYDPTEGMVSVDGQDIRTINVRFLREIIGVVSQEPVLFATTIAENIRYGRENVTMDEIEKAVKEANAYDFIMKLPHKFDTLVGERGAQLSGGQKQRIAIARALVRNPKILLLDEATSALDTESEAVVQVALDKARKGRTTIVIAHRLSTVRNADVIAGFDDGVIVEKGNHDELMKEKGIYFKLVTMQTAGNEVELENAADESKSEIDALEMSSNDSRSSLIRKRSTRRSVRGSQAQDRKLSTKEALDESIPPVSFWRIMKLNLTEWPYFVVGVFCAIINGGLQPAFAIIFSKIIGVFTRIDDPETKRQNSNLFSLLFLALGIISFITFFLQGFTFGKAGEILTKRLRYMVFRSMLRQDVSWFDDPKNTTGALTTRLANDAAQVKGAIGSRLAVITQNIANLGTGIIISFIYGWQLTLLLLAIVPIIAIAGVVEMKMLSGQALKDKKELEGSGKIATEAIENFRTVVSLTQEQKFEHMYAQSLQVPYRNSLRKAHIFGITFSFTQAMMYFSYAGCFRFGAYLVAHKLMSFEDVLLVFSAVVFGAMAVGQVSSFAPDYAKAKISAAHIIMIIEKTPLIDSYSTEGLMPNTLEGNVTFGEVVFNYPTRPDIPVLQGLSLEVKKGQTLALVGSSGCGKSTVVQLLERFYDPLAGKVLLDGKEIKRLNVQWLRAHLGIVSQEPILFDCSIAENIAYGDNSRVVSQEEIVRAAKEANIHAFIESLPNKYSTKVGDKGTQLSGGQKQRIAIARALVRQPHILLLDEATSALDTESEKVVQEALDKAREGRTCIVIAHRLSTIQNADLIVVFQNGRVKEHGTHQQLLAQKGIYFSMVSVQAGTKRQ
Data set [11] deals with T3, ATP-dependent translocase ABCB1. Put plainly: Inhibition of P-gp in human U87-TxR cells assessed as increase in Rho123 accumulation at 2.5 uM measured after 72 hrs by flow cytometry. The data set is classed as cell-based.
Data set [12] has the same target. Description: Inhibition of P-gp in human U87-TxR cells assessed as increase in Rho123 accumulation at 50 nM measured after 30 mins by flow cytometry. The data set is classed as cell-based. The note with it: 0.5 h, 0.05 µM.
The target is the same in data set [13]. Description: Inhibition of P-gp in human U87-TxR cells assessed as increase in Rho123 accumulation measured after 30 mins by flow cytometry. The note with it: 0.5 h. The data set is classed as cell-based.

For `Cc1ccc(C(C(=O)NC(C)(C)C)N(C)CCOC(=O)/C=C/C(=O)c2ccc(F)cc2)cc1` (configuration not stated), the selectivity ratio in [1] and in [7] was 2.2 in each case. This compound registered an inhibition in data set [2] of 82.7%. Also, the IC50 in [3] turned out to be 0.59 µM; in data set [4] it was 6.96 µM; in [5] it was 6.14 µM; in [6], 14.2 µM. The inhibition entry in data set [8] and in data set [9] was “Active” each time. In addition, the “inhibition (INH)” value in data set [10] is “Active”; in data set [11], “Not Active”.

With `COc1cc2c(cc1OC)CN(CCc1ccc(NC(=O)c3cc(OC)c(OC)cc3NC(=O)c3cnc4ccccc4c3)cc1)CC2` [TARIQUIDAR], the “inhibition (INH)” value in data set [12] is “Active”.

For `Cc1cccc(C(C(=O)NC(C)(C)C)N(C)CCOC(=O)/C=C/C(=O)c2ccc(F)cc2)c1` (configuration not stated), the selectivity ratio in [1] and in data set [7] was 1.6 each time. Further, the inhibition in data set [2] came to 33%. Further, the IC50 in data set [3] is 1.5 µM; in data set [4], 7.89 µM; in [5], 8.41 µM; in data set [6] it was 13.3 µM. In addition, the inhibition result in data set [8] and in [9] was “Active” in each case. The entries for the “inhibition (INH)” value in data set [10] and in [11] were “Active” and “Not Active”, respectively.

For `CCN(CCOC(=O)/C=C/C(=O)c1ccc(F)cc1)C(C(=O)NC(C)(C)C)c1cccc(C)c1` (configuration not stated), the selectivity ratio in [1] and in data set [7] was 2 in each case. Moreover, in [2], the inhibition came out at 50.2%. Also, the IC50 in data set [3] was determined as 3.37 µM; in data set [4], 7.07 µM; in [5], 6.05 µM; in [6], 13 µM. For the same compound, the inhibition result in [8] and in data set [9] was “Active” each time. Further, the “inhibition (INH)” value was “Active” in data set [10] and “Not Active” in data set [11].

Consider `Cc1ccc(C(=O)/C=C/C(=O)OCCN(C)C(C(=O)NC2CCCCC2)c2ccc(F)cc2)cc1` (configuration not stated), for which the selectivity ratio in data set [1] and in data set [7] was 1.6 each time. Besides, the inhibition in [2] was 68.8%. For the same compound, the IC50 is 37 µM in [3], 5.89 µM in [4], 11.7 µM in data set [5] and 14.2 µM in data set [6]. The inhibition entry in [8] and in data set [9] was “Active” throughout. Moreover, the results for the “inhibition (INH)” value in [10] and in data set [11] were “Active” and “Not Active”, respectively.

In the case of `CN(CCOC(=O)/C=C/C(=O)c1ccc(F)cc1)C(C(=O)NC(C)(C)C)c1ccc(F)cc1` (configuration not stated), the selectivity ratio in [1] and in data set [7] was 1.4 in each case. The IC50 stood at 8.9 µM in data set [4], 8.54 µM in [5] and 11.8 µM in data set [6]. For the same compound, the inhibition result in [9] was “Active”. Further, the “inhibition (INH)” value in data set [13] is recorded as “Dose-dependent effect”.

With `Cc1cccc(C(C(=O)NC2CCCCC2)N(C)CCOC(=O)/C=C/C(=O)c2ccc(F)cc2)c1` (configuration not stated), the selectivity ratio in data set [1] and in [7] was 1.9 throughout. The same compound came in with an inhibition in data set [2] of 53%. In addition, the IC50 came out at 3.2 µM in data set [3], 7.02 µM in data set [4], 7.77 µM in data set [5] and 14.1 µM in data set [6]. The inhibition entry in [9] is “Active”. For the same compound, the “inhibition (INH)” value in data set [10] and in [11] was “Active” in each case.

For `CN(CCOC(=O)/C=C/C(=O)c1ccc(F)cc1)C(C(=O)NC(C)(C)C)c1ccc(F)c(F)c1` (configuration not stated), the selectivity ratio in data set [1] and in data set [7] was 2.4 in each case. For the same compound, in data set [2], the inhibition was 84.6%. For the same compound, the IC50 in [3] came to 0.19 µM; in data set [4], 7.13 µM; in [5], 7.74 µM; in [6], 17.8 µM. Moreover, the inhibition entry in data set [8] is “Active”. Moreover, the entries for the “inhibition (INH)” value in data set [10] and in [11] were “Active” and “Not Active”, respectively.

As to `CN(CCOC(=O)/C=C/C(=O)c1ccc(F)cc1)C(C(=O)NC(C)(C)C)c1ccccc1F` (configuration not stated), the selectivity ratio in data set [1] and in data set [7] was 2 each time. In [2], this compound yielded an inhibition of 64%. The IC50 amounted to 5 µM in data set [3], 8.34 µM in data set [4], 6.14 µM in data set [5] and 14.8 µM in [6]. Besides, the inhibition entry in [9] is “Active”. Also, the “inhibition (INH)” value in data set [10] is “Active”; in data set [11], “Not Active”.
